Source: ChEMBL document CHEMBL4316651, “Halogenated Tyrosine Derivatives from the Tropical Eastern Pacific Zoantharians Antipathozoanthus hickmani and Parazoanthus darwini” (J Nat Prod, 2019)
Active and inactive are the calls of the source. The calls are words filed in the database; no cut-off is given here.

Legend:
HepG2 = test: Cytotoxicity in human HepG2 cells incubated for 24 hrs by MTT assay; assay type: functional, cell-based
Candida albicans = test: Antimicrobial activity against Candida albicans ATCC 64124 at 128 ug/ml by CLSI protocol based method; assay type: functional, organism-based
Staphylococcus aureus [1] = test: Antimicrobial activity against methicillin-resistant Staphylococcus aureus MB5393 at 128 ug/ml by CLSI protocol based method; assay type: functional, organism-based
MIA PaCa-2 = test: Cytotoxicity in human MIAPaCa2 cells incubated for 24 hrs by MTT assay; assay type: functional, cell-based
Pseudomonas aeruginosa = test: Antimicrobial activity against Pseudomonas aeruginosa PAO1 at 128 ug/ml by CLSI protocol based method; assay type: functional, organism-based
Acinetobacter baumannii = test: Antimicrobial activity against Acinetobacter baumannii MB5973 at 128 ug/ml by CLSI protocol based method; assay type: functional, organism-based
Klebsiella pneumoniae = test: Antimicrobial activity against Klebsiella pneumoniae ATCC 700603 at 128 ug/ml by CLSI protocol based method; assay type: functional, organism-based
A549 = test: Cytotoxicity in human A549 cells incubated for 24 hrs by MTT assay; assay type: functional, cell-based
Staphylococcus aureus [2] = test: Antimicrobial activity against methicillin-sensitive Staphylococcus aureus ATCC 29213 at 128 ug/ml by CLSI protocol based method; assay type: functional, organism-based
Escherichia coli = test: Antimicrobial activity against Escherichia coli ATCC 25922 at 128 ug/ml by CLSI protocol based method; assay type: functional, organism-based

Structure (SMILES): C[N+](C)(C)CC(=O)N[C@@H](Cc1cc(Br)c(O)c(I)c1)C(=O)O.O=C([O-])C(F)(F)F
- IC50 (HepG2; Homo sapiens, HepG2, 24 h, read-out: IC50): 7.8 µM
- Activity (Candida albicans): inactive
- Activity (Staphylococcus aureus [1]): inactive
- IC50 (MIA PaCa-2): Not Active
- Activity (Pseudomonas aeruginosa): inactive
- Activity (Acinetobacter baumannii): inactive
- Activity (Klebsiella pneumoniae): inactive
- IC50 (A549): Not Active
- Activity (Staphylococcus aureus [2]): inactive
- Activity (Escherichia coli): inactive

Structure (SMILES): C[N+]1(C)CCC[C@@H]1C(=O)N[C@@H](Cc1cc(Br)c(O)c(Br)c1)C(=O)O.O=C([O-])C(F)(F)F
- IC50 (HepG2; hepg2): Not Active
- Activity (Candida albicans): inactive
- Activity (Staphylococcus aureus [1]): inactive
- IC50 (MIA PaCa-2): Not Active
- Activity (Pseudomonas aeruginosa): inactive
- Activity (Acinetobacter baumannii): inactive
- Activity (Klebsiella pneumoniae): inactive
- IC50 (A549): Not Active
- Activity (Staphylococcus aureus [2]): inactive
- Activity (Escherichia coli): inactive

Structure (SMILES): C[N+](C)(C)CC(=O)N[C@@H](Cc1cc(Br)c(O)c(Br)c1)C(=O)O.O=C([O-])C(F)(F)F
- IC50 (HepG2; hepg2): Not Active
- Activity (Candida albicans): inactive
- Activity (Staphylococcus aureus [1]): inactive
- IC50 (MIA PaCa-2): Not Active
- Activity (Pseudomonas aeruginosa): inactive
- Activity (Acinetobacter baumannii): inactive
- Activity (Klebsiella pneumoniae): inactive
- IC50 (A549): Not Active
- Activity (Staphylococcus aureus [2]): inactive
- Activity (Escherichia coli): inactive

Structure (SMILES): C[N+](C)(C)CCc1cc(Br)c(O)c(I)c1.O=C([O-])C(F)(F)F
- IC50 (HepG2; hepg2): Not Active
- Activity (Candida albicans): inactive
- Activity (Staphylococcus aureus [1]): inactive
- IC50 (MIA PaCa-2): Not Active
- Activity (Pseudomonas aeruginosa): inactive
- Activity (Acinetobacter baumannii): inactive
- Activity (Klebsiella pneumoniae): inactive
- IC50 (A549): Not Active
- Activity (Staphylococcus aureus [2]): inactive
- Activity (Escherichia coli): inactive

Structure (SMILES): C[N+]1(C)CCC[C@@H]1C(=O)N[C@@H](Cc1cc(Br)c(O)c(I)c1)C(=O)O
- Activity (Candida albicans): inactive
- Activity (Staphylococcus aureus [1]): inactive
- Activity (Pseudomonas aeruginosa): inactive
- Activity (Acinetobacter baumannii): inactive
- Activity (Klebsiella pneumoniae): inactive
- Activity (Staphylococcus aureus [2]): inactive
- Activity (Escherichia coli): inactive

Structure (SMILES): C[N+](C)(C)CCc1cc(I)c(O)c(I)c1.O=C([O-])C(F)(F)F
- IC50 (HepG2; hepg2): Not Active
- Activity (Candida albicans): inactive
- Activity (Staphylococcus aureus [1]): inactive
- IC50 (MIA PaCa-2): Not Active
- Activity (Pseudomonas aeruginosa): inactive
- Activity (Acinetobacter baumannii): inactive
- Activity (Klebsiella pneumoniae): inactive
- IC50 (A549): Not Active
- Activity (Staphylococcus aureus [2]): inactive
- Activity (Escherichia coli): inactive

Structure (SMILES): CCC(C)C(=O)Nc1nc2c([nH]1)[C@@H](C)c1[nH]c(NC(=O)C=C(C)C)nc1CC2 (some centres not stated)
- IC50 (HepG2; hepg2): Not Active
- Activity (Candida albicans): inactive
- Activity (Staphylococcus aureus [1]): inactive
- IC50 (MIA PaCa-2): Not Active
- Activity (Pseudomonas aeruginosa): inactive
- Activity (Acinetobacter baumannii): inactive
- Activity (Klebsiella pneumoniae): inactive
- IC50 (A549): Not Active
- Activity (Staphylococcus aureus [2]): inactive
- Activity (Escherichia coli): inactive

Structure (SMILES): CC(C)=CC(=O)Nc1nc2c([nH]1)[C@H](C)c1[nH]c(NC(=O)C(C)C)nc1CC2
- IC50 (HepG2; hepg2): Not Active
- Activity (Candida albicans): inactive
- Activity (Staphylococcus aureus [1]): inactive
- IC50 (MIA PaCa-2): Not Active
- Activity (Pseudomonas aeruginosa): inactive
- Activity (Acinetobacter baumannii): inactive
- Activity (Klebsiella pneumoniae): inactive
- IC50 (A549): Not Active
- Activity (Staphylococcus aureus [2]): inactive
- Activity (Escherichia coli): inactive
